Common to all, as to type: functional
A short description of assay [1]: Growth inhibition of human NCI60 cells.
Another assay deals with P388. As to the kind of experiment: Cytotoxicity against mouse P388 cells. The conditions noted are these: read-out: ED50 (the source's name).
For the next assay, the system named is OVCAR-3. Put plainly: Growth inhibition of human OVCAR-3 cells.
The test system of a further assay is SF-295. Put plainly: Growth inhibition of human SF295 cells.
The subject of the next assay is A498. As to the kind of experiment: Growth inhibition of human A498 cells.
For a further assay, the system named is NCI-H460. Put plainly: Growth inhibition of human NCI-H460 cells.
For the next assay, the system named is KM-20L2. Put plainly: Growth inhibition of human KM20L2 cells.
The next assay relates to SK-MEL-5. As to the kind of experiment: Growth inhibition of human SK-MEL-5 cells.

In brackets after ≈: the same amount, converted by molar mass. A value given as a limit tells only on which side of the number the result lay.

`C[C@@H]1[C@]2(O[C@H]3C=C4[C@@H]5CC[C@H]6Cc7nc8c(nc7C[C@]6(C)[C@H]5C[C@@H](O)[C@]4(C)[C@]31O)C[C@@H]1CC[C@H]3C4=CC[C@@H]5[C@H](C)[C@@]6(OC[C@]45C(=O)C[C@@H]3[C@@]1(C)C8)OC(C)(C)C[C@H]6O)O[C@](C)(CO)C[C@H]2O` [CEPHALOSTATIN 1]: it took 2.2 nM to inhibit growth in assay [1] by half (GI50).
As for `CO[C@H]1c2nc3c(nc2C[C@@H]2CC[C@H]4C5=C[C@@H]6O[C@]7(O[C@](C)(CO)C[C@H]7O)[C@@H](C)[C@]6(O)[C@@]5(C)[C@H](O)C[C@@H]4[C@]21C)C[C@@]1(C)[C@@H](CC[C@H]2C4=CC[C@@H]5[C@H](C)[C@@]6(OC[C@]45C(=O)C[C@@H]21)OC(C)(C)C[C@H]6O)C3` [CEPHALOSTATIN 18], the EC50 with P388 was found to be 4.3 ng/mL (≈ 4.57 nM). In addition, the GI50 in the assay with OVCAR-3, with SF-295, in the assay on A498, in the assay on NCI-H460, in the assay with KM-20L2 and in the assay with SK-MEL-5 was < 1 ng/mL throughout. Also, the concentration for 50% growth inhibition (GI50) (commonly the concentration giving 50% growth inhibition) in assay [1] was 21.7 nM.
Take `CO[C@H]1c2nc3c(nc2C[C@@H]2CC[C@H]4C5=CC[C@@H]6[C@H](C)[C@@]7(OC[C@]56C(=O)C[C@@H]4[C@]21C)OC(C)(C)C[C@H]7O)C[C@@]1(C)[C@@H](CC[C@H]2C4=C[C@@H]5O[C@]6(O[C@](C)(CO)C[C@H]6O)[C@@H](C)[C@]5(O)[C@@]4(C)[C@H](O)C[C@@H]21)C3` [CEPHALOSTATIN 19]: the EC50 in the assay with P388 was found to be 7.4 ng/mL (≈ 7.86 nM). In addition, the concentration for 50% growth inhibition (GI50) in the assay with OVCAR-3, with SF-295, in the assay on A498, in the assay on NCI-H460, in the assay with KM-20L2 and in the assay with SK-MEL-5 was < 1 ng/mL each time. For the same molecule, the 50% growth inhibitory concentration (GI50) in assay [1] was determined as 16.6 nM.

These data come from ChEMBL document CHEMBL1150927, “Antineoplastic agents. 398. Isolation and structure elucidation of cephalostatins 18 and 19” (1998).
